Experimental data taken from ChEMBL document CHEMBL3886245, “Dual modulators of 5HT2A and D3 receptors” (2014).

What follows are molecules tested against D(3) dopamine receptor (Homo sapiens, UniProt P35462) (assay: (§1) Membranes were incubated in a total volume of 200 ul with a fixed concentration of radioligand (final concentration approximately 0.7 nM [3H]-spiperone for D2, 0.5 nM [3H]-spiperone for D3, and 1.1 nM [3H]-ketanserin for 5-HT2A) and ten concentrations of test compound in ranging between 10 uM-0.1 nM for 1 h at RT. At the end of the incubation, the reaction mixtures were filtered on to unifilter 96-well white microplates with bonded GF/C filters.).
D(3) dopamine receptor, sequence (P35462 whole entry): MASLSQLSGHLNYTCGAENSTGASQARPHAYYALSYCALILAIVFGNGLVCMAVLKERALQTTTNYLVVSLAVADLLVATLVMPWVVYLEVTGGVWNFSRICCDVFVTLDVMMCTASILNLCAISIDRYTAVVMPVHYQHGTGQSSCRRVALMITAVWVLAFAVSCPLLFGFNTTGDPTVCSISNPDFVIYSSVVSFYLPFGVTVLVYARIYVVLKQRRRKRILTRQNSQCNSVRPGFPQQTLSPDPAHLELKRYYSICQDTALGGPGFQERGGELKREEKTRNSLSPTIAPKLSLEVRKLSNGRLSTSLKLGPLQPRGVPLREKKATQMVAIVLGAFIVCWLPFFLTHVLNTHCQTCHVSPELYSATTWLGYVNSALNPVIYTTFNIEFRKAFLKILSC

Row | SMILES | Ki
1 | O=S(=O)(N[C@H]1CC[C@H](CCN2CCC(c3noc4cc(F)ccc34)CC2)CC1)c1cccnc1 | 1.95 nM
2 | COCCC(=O)N[C@H]1CC[C@H](CCN2CCC(c3noc4ccc(F)cc34)CC2)CC1 | 3.1 nM
3 | O=C(N[C@H]1CC[C@H](CCN2CCC(c3noc4cc(F)ccc34)CC2)CC1)c1ccc2c(c1)OCO2 | 2.75 nM

Each molecule was assayed against 5-hydroxytryptamine receptor 2A (Homo sapiens, UniProt P28223) (assay: as §1).
5-hydroxytryptamine receptor 2A, sequence (P28223 whole entry): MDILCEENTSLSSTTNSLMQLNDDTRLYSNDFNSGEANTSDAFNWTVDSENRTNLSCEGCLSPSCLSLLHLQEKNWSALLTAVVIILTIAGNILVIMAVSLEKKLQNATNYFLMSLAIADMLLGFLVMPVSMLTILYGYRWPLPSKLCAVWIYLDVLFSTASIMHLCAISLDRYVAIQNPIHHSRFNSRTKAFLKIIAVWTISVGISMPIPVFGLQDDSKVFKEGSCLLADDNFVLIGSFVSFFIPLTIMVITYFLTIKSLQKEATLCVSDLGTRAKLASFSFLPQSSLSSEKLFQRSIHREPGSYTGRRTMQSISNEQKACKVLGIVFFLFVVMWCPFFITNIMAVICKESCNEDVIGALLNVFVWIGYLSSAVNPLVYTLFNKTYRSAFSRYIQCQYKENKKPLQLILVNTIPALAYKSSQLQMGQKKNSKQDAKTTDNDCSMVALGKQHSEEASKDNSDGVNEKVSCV

Row | SMILES | Ki
4 | O=S(=O)(N[C@H]1CC[C@H](CCN2CCC(c3noc4cc(F)ccc34)CC2)CC1)c1cccnc1 | 2.48 nM
5 | COCCC(=O)N[C@H]1CC[C@H](CCN2CCC(c3noc4ccc(F)cc34)CC2)CC1 | 37 nM
6 | O=C(N[C@H]1CC[C@H](CCN2CCC(c3noc4cc(F)ccc34)CC2)CC1)c1ccc2c(c1)OCO2 | 1.71 nM
